Results taken from the RepoRT retention time repository (doi:10.1016/j.jhazmat.2019.121712).

Assay: Thermo Scientific Acclaim RSLC 120 C18, 100 × 2.1 mm, 2.2 µm, 30 °C; A: 90% water + 10% methanol + 0.01% formic acid + 5 mM ammonium formate; B: methanol + 0.01% formic acid + 5 mM ammonium formate; gradient (min/%B) 0.1/1 3/39 14/99.9 16/99.9
Conditions: stereoisomer not certain

| SMILES | LC retention time |
| --- | --- |
| COC(=O)c1ccccc1C(=O)OC | 6.63 min |
| CCOP(=S)(OCC)ON=C(C#N)c1ccccc1 | 11.2 min |
| CC(C)(N)Cc1ccccc1 | 4.64 min |
| CCNc1nc(NC(C)(C)C)nc(SC)n1 | 10.2 min |
| O=S(=O)(O)NC1CCCCC1 | 6.99 min |
| CCCOP(=S)(OCCC)OP(=S)(OCCC)OCCC | 12.9 min |
| OC(CCN1CCCC1)(c1ccccc1)C1CCCCC1 (configuration not stated) | 7.8 min |
| CCC(C(=O)c1ccc2c(c1)OCO2)N1CCCC1 (configuration not stated) | 4.49 min |
| CC(C)(C)NC(=O)C1CN(Cc2cccnc2)CCN1CC(O)CC(Cc1ccccc1)C(=O)NC1c2ccccc2CC1O (configuration not stated) | 9.79 min |
| CCCCCCCCOC(=O)c1ccccc1C(=O)OCCCCCCCC | 15.3 min |
| CCC(=O)OC(Cc1ccccc1)(c1ccccc1)C(C)CN(C)C (configuration not stated) | 7.73 min |
| CN(C)NC(=O)CCC(=O)O | 6.28 min |
| CCN(CC)CCCN(c1ccccc1)C1Cc2ccccc2C1 | 8.85 min |
| C=C(C)C1CCC(C)=CC1c1c(O)cc(CCCCC)cc1O (configuration not stated) | 12.7 min |
| CNC(=O)Oc1ccccc1C(C)C | 8.12 min |
| CCOP(=S)(OCC)SCSCC | 11.4 min |

| SMILES | LC retention time |
| --- | --- |
| CCCSP(=O)(OCC)SCCC | 10.2 min |
| NC(=O)N1c2ccccc2C2OC2c2ccccc21 (configuration not stated) | 6.04 min |
| CCOC(=O)N(C)C(=O)CSP(=S)(OCC)OCC | 10.2 min |
| CC(N)C(O)c1ccccc1 (configuration not stated) | 3.68 min |
| CC1C(=O)OC2CC[N+]3([O-])CC=C(COC(=O)C(C)(O)C1(C)O)C23 (configuration not stated) | 3.19 min |
| CN(C)CCN(Cc1cccs1)c1ccccc1 | 6.32 min |
| CCCN(CCC)c1c([N+](=O)[O-])cc(C(C)C)cc1[N+](=O)[O-] | 13.2 min |
| CSc1nnc(C(C)(C)C)c(=O)n1N | 7.07 min |
| CCC1OC(=O)CC(O)C(C)C(OC2OC(C)C(O)C(N(C)C)C2O)C(CCN2CC(C)CC(C)C2)CC(C)C(=O)C=CC(C)=CC1COC1OC(C)C(O)C(OC)C1OC (configuration not stated) | 6.69 min |
| COP(=S)(OC)SCn1nnc2ccccc2c1=O | 8.89 min |
| COC(=O)c1ccccc1S(=O)(=O)NC(=O)N(C)c1nc(C)nc(OC)n1 | 7.94 min |
| CC12CCC3C4CCC(=O)C=C4CCC3C1CCC2O (configuration not stated) | 9.37 min |
| COc1ccc(OC)c(CCN)c1 | 4.43 min |
| CCC(C)C(=O)OC1CC(O)C=C2C=CC(C)C(CCC(O)CC(O)CC(=O)O)C21 (configuration not stated) | 8.36 min |
| CCCCC1C(=O)N(c2ccccc2)N(c2ccccc2)C1=O | 8.98 min |
| Nc1ccc2c(c1)C(c1ccccc1)=NCC(=O)N2 | 4.78 min |

More lines, now with the values ahead:

| LC retention time | SMILES |
| --- | --- |
| 5.89 min | COc1ccc(CN(CCN(C)C)c2ccccn2)cc1 |
| 4.75 min | COc1cc(NS(=O)(=O)c2ccc(N)cc2)ncn1 |
| 2.18 min | Cc1ncc(CO)c(CO)c1O |
| 4.06 min | COc1cc(Cc2cnc(N)nc2N)cc(OC)c1OC |
| 10.7 min | CN(C)C(=O)SCCCCOc1ccccc1 |
| 6.53 min | O=c1[nH]c2ccccc2s1 |
| 4.44 min | Cc1cc2c(OCC(O)CNC(C)C)cccc2[nH]1 (configuration not stated) |
| 13.6 min | Oc1ccc2ccccc2c1N=Nc1ccccc1 |
| 4.93 min | CC(=O)c1cc2cccc(OCC(O)CNC(C)C)c2o1 (configuration not stated) |
| 14.1 min | C=C(c1ccc(C(=O)O)cc1)c1cc2c(cc1C)C(C)(C)CCC2(C)C |
| 5.34 min | CC(CN(C)C)CN1c2ccccc2S(=O)(=O)c2ccccc21 (configuration not stated) |
| 10.7 min | CNC(=O)C(=NOC)c1ccccc1COc1cc(C)ccc1C |
| 8.23 min | CN(C)CCC=C1c2ccccc2CCc2ccccc21 |
| 9.58 min | O=C1OC(=O)c2ccccc21 |
| 8.05 min | CCCc1nc(C)c2c(=O)[nH]c(-c3cc(S(=O)(=O)N4CCN(CCO)CC4)ccc3OCC)nn12 |
